The values that follow come from patent US10287308B2, “Compounds, compositions, and methods for the treatment of cancers” (priority 2013, dated 2019).

For data set [1] the following is noted: H460 tumor-bearing nude mice, intravenous, dosed at MTD as free drug, 24 hour time point, FIG. 2.
Experimental: Animals were inoculated with 5×10^5 H460 small cell lung cancer cells via subcutaneous injection to the flank. Tumors were allowed to reach an approximate volume of ˜500 mm^3. Animals were then randomized into treatment groups of 3 animals per time point and were dosed at the maximum tolerated dose (MTD). The 24 hour time point was used as a benchmark across compounds
Tumor platinum levels were determined by inductively coupled plasma mass spectrometry (ICP-MS). Tumors were excised from animals and dissolved in fuming nitric acid (60% w/w) by adding four parts nitric acid to 1 part tumor w/w and heating overnight at 60 degrees Centigrade. The resulting digest was diluted 1:10 in ICP-MS analysis buffer (1% nitric acid, 2% Triton® x-100), and directly introduced into the ICP-MS unit by peristaltic pump. The end dilution factor for the samples as introduced to the ICP-MS was 50×.
A short description of data set [2]: Maximum tolerated dose used in the mouse PK/PD study. It is filed as in vivo. The conditions noted are these: H460 tumor-bearing mice.
A short description of data set [3]: logP by reverse phase HPLC retention time against a calibration curve. The conditions noted are these: chromatographic method, Zorbax Eclipse XDB C8, 30° C.

What is called chromatographic logP is lipophilicity estimated from chromatographic retention. The low end stands for lower lipophilicity, the high end for higher lipophilicity. Turning to `CCNC(=O)[O][Pt]([NH2])([NH2])([Cl])([Cl])[O]C(C)=O` [Compound 1], the chromatographic logP in “physchem” was under 1.

Consider `CCNC(=O)[O][Pt]([NH2])([NH2])([Cl])([Cl])[O]C(=O)NCC` [Compound 5], for which the “platinum levels in the tumor” value in data set [1] is reported as “higher platinum levels”. Further, the “Dose (mg/kg), dosed at the maximum tolerated dose (MTD)” value in data set [2] is on record as 30 mg/kg. In data set [3], the “Measured LogP” value is recorded as under 1.
